Assay results as given in paper PMC6114103, “17-DMAG inhibits the multiplication of several Babesia species and Theileria equi on in vitro cultures, and Babesia microti in mice” (International Journal for Parasitology: Drugs and Drug …, 2018).

Key:
NIH/3T3 cells = test: cytotoxicity (drug-exposure viability) assay, CCK-8; assay type: cell-based, mouse; details: for IC50: Mus musculus, NIH3T3, NIH/3T3, 24 h exposure, CCK-8, read-out: IC50 on cell line NIH/3T3
Experimental: Each medium was supplemented with 10% fetal bovine serum, 0.5% penicillin/streptomycin (Gibco, Life Technologies, USA), and an additional 1% glutamine. The medium was changed every 3–4 days and incubated until approximately 80% confluent. The cells were free from mycoplasma contamination after being checked by staining with DAPI (Sigma-Aldrich, USA). The detachment of cells from the culture flask was done using TrypLE™ Express (Gibco, Life Technologies, USA) after washing two times with Dulbecco's phosphate-buffered saline (DPBS). Subsequently, the counting of viable cells was carried out using a Neubauer improved C-Chip (NanoEntek Inc., Korea) after staining with 0.4% trypan blue solution. The drug-exposure viability assay was performed in accordance with the recommendation of the Cell Counting Kit-8 (CCK-8, Dojindo, Japan). Briefly, the assay was carried out using a 96-well plate at 37 °C in a humidified incubator with 5% CO2. One hundred microliters of cells at a density of 5 × 10^4 cells/ml was seeded per well and allowed to attach to the plate for 24 h. […] The exposure of drugs was carried out for 24 h, followed by the addition of 10 μl of CCK-8. The plate was further incubated for 3 h, and the absorbance was measured at 450 nm using a microplate reader.

[1] = system: B. microti (Munich strain); test: inhibition assay using a B. microti-infected mouse model; assay type: in vivo, BALB/c mice; details: 5 consecutive days; for day p.i. on which parasite no longer detected in blood smears via microscopy (parasite clearance): 17-DMAG + DA 15 + 15, 17-DMAG + AV 15 + 10, DA + AV 15 + 10 mg/kg BW
Experimental: B. microti (Munich strain) was recovered from -80 °C stock in two 6-week female Balb/c mice (Clea, Japan). The parasitemia was monitored every 2 days. […] The inhibitory effect of 17-DMAG was also determined using a B. microti mouse model according to the previous protocol ([Goo et al., 2010]). Briefly, 35 female BALB/c mice aged 8 weeks received an intraperitoneal injection of 1 × 10^7 of B. microti-infected RBC and were divided into seven groups. Another group consisting of five mice was kept uninfected and untreated as a control. The multiplication of B. microti was observed from blood smears after staining with Giemsa using a light microscope. The drug treatment was initiated to all infected mice on day five, after the parasitemia reached approximately 1%, and continue to the total of five consecutive days. Group 1 was treated with 4% DMSO in saline water as a control intraperitoneally. […] The parasitemia was estimated from Giemsa-stained blood smears using microscopy in approximately 5000 RBC. Furthermore, the hematology profiles including RBC, hemoglobin, and hematocrit were measured from 10 μl of mouse blood using an automatic hematology analyzer (Celltac α MEK-6450, Nihon Kohden, Tokyo, Japan). The rate of parasitemia, hematology profiles, and mouse body weight was monitored for 60 days. The experiment was repeated once so each group contained 10 mice. […] Combination index (CI) values for the drug combination were calculated using CompuSyn software ([Chou, 2006]). […] The differences among groups regarding the parasitemia, hematology profiles, and body weight in the B. microti-infected mouse model were analyzed using Student's t-test, available in GraphPad Prism software. The difference was considered significant if P < 0.05.

[2] = 17-DMAG 30, DA 25, AV 20 mg/kg BW

Row | Compound | IC50 (NIH/3T3 cells) | inhibition on NIH/3T3 cell viability (NIH/3T3 cells; at a concentration of 40 μM, separate assay) | day p.i. on which parasite no longer detected in blood smears via microscopy (parasite clearance) [1, 2] | peak parasitemia ([1]; 17-DMAG 30 mg/kg BW intraperitoneal, peak on day 10 p.i., 10 mice) | inhibition of the multiplication of B. microti in mice ([1]; 17-DMAG 30, DA 25, AV 20 mg/kg BW, combinations 17-DMAG 15 with DA 15 or AV 10 mg/kg BW)
1 | O=C1C(O)=C([C@H]2CC[C@H](c3ccc(Cl)cc3)CC2)C(=O)c2ccccc21 [AV, atovaquone] | > 40 µM | did not show any inhibition | ≤ 28 day p.i. | – | –
2 | CO[C@H]1/C=C\C=C(/C)C(=O)NC2=CC(=O)C(NCCN(C)C)=C(C[C@@H](C)C[C@H](OC)[C@H](O)[C@@H](C)/C=C(\C)[C@@H]1OC(N)=O)C2=O [17-DMAG, 17-dimethylaminoethylamino-17-demethoxygeldanamycin] | 15.5 ± 4 µM | – | 36 day p.i. | 4.7 ± 2.0% | effectively inhibited
